In PMC12616682, “Identification of a Highly Cooperative PROTAC Degrader Targeting GTP-Loaded KRAS(On) Alleles” (Journal of the American Chemical Society, 2025):
pIC50: −log10 of the molar value. Entries after “also recorded” stand apart in the source; their conditions may differ. Where two headings read alike, the source gives them in different places.

Columns and labels:
[1] = molecular target: T1, KRAS^G12D in GP5d cells (Homo sapiens, UniProt P01116, G12D); assay: Endogenous KRAS degradation by Western blot in GP5d cells; format: cell-based
T1 construct: comparison of the degradative effect on endogenous KRAS; host or cells: GP5d

[2] = molecular target: T2, KRAS^G12R in Cal-62 cells (Homo sapiens, UniProt P01116, G12R); assay: Endogenous KRAS degradation by Western blot in Cal-62 cells; format: cell-based; conditions: Cal-62 (G12R)
T2 construct: Potent degradation of endogenous KRAS^G12R was achieved by ACBI4 in the Cal-62 cell line; host or cells: Cal-62

[3] = molecular target: T3, KRAS^G12R in KP-2 cells (Homo sapiens, UniProt P01116, G12R); assay: Endogenous KRAS degradation by Western blot in KP-2 cells; format: cell-based; conditions: KP-2 (G12R)
T3 construct: host or cells: KP-2

[4] = molecular target: T4, KRAS^Q61K in Calu-6 cells (Homo sapiens, UniProt P01116, Q61K); assay: Endogenous KRAS degradation by Western blot in Calu-6 cells; format: cell-based; conditions: Calu-6 (Q61K)
T4 construct: host or cells: Calu-6

[5] = molecular target: T5, KRAS^Q61L in SW948 cells (Homo sapiens, UniProt P01116, Q61L); assay: Endogenous KRAS degradation by Western blot in SW948 cells; format: cell-based
T5 construct: host or cells: SW948

[6] = molecular target: T6, HiBiT-KRAS^G12R in Cal-62 cells (Homo sapiens, UniProt P01116, G12R); assay: HiBiT degradation assay, HiBiT-KRAS^G12R Cal-62 cells; format: cell-based; conditions: Cal-62 (HiBitG12R)
T6 construct: generated a HiBiT-KRAS^G12R Cal-62 knock-in cell line using the CRISPR Cas9 technology; endogenous in cells; host or cells: Cal-62 HiBiT KRAS G12R (in-house CRISPR knock-in)
Procedure: (Gibco) with 10% FBS in a humidiﬁed cell incubator at 37 °C and 5% CO2.
Plasmids pSpCas9 BB-2A-GFP (PX458) containing gRNA, Cas9 and GFP sequences and […] plasmid containing ssDNA donor template were purchased from Genscript. Cal-62 cells were plated at 5x10^5 cells in a 6-well plate and left to adhere overnight. The next day, the transfection plasmids (0.5 µg of each gRNA plasmid and 0.5 µg of donor template) were diluted in Opti-MEM, combined with Lipofectamine solution in Opti-mem according to the manufacturer’s protocol and incubated for 20 min at RT. The mixture was added to the cells and incubated for 24 h. The next day the media was exchanged, and the cells were left to incubate for another 24 h. GFP positive cells were single-cell sorted into 96-well plates using ﬂuorescence-activated cell sorting (FACS) at the Flow Cytometry and Cell Sorting Facility (University of Dundee). Sorted cells were left to grow in conditioned media supplemented with 20% FBS for 3 weeks. Formed colonies were tested for the expression of HiBiT KRAS using the Nano-Glo® HiBiT Lytic system (Promega). The positive clones were additionally tested for insertion of the HiBiT tag by western blotting for KRAS (mouse anti-KRAS, LsBio) and HiBiT (mouse anti-HiBiT, Promega) and the insert was further conﬁrmed by Sanger sequencing. […]
gRNA1: 5’ […] 3’, gRNA2: 5’ […] 3’, gRNA 3: 5’ […]
template DNA: 5’ caatccagctt tatttgacac tcattctctc aactctcatc tgattcttac tgttaatatt tatccaagag aactactgcc atgatgcttt aaaagttttt ctgtagctgt tgcatattga cttctaacac ttagaggtgg gggtccacta ggaaaactgt aacaataaga gtggagatag ctgtcagcaa cttttgtgag ggtgtgctac agggtgtaga gcactgtgaa gtctctacat gagtgaagtc atgatatgat cctttgagag cctttagccg ccgcagaaca gcagtctggc tatttagata gaacaacttg attttaagat aaaagaactg tctatgtagc atttatgcat ttttcttaag cgtcgatgga ggagtttgta aatgaagtac agttcattac gatacacgtc tgcagtcaac tggaattttc atgattgaat tttgtaaggt attttgaaat aatttttcat ataaaggtga gtttgtatta aaaggtactg gtggagtatt tgatagtgta ttaaccttat gtgtgacatg ttctaatata gtcacatttt cattattttt attataaggc ctgctgaaa […]
atg[…]act gaGtaCaaGctCgtAgtagttggag ctCgtggc gta ggc aag agt gcc ttA acAatCcaActaattcagaatcat tttgtggacg aatatgatcc aacaatagag gtaaatcttg ttttaatatg catattactg gtgcaggacc attctttgat acagataaag gtttctctga ccattttcat gagtacttat tacaagataa ttatgctgaa agttaagtta tctgaaatgt accttgggtt tcaagttata tgtaaccatt aatatgggaa ctttactttc cttgggagta tgtcagggtc catgatgttc actctctgtg cattttgatt ggaagtgtat ttcagagttt cgtgagaggg tagaaatttg tatcctatct ggacctaaaa gacaatcttt ttattgtaac ttttattttt atgggtttct tggtattgtg acatcatatg taaaggttag atttaattgt actagtgaaa tataattgtt tgatggttga tttttttaaa cttcatcagc agtattttcc tatcttcttc tcaacattag agaacctaca actaccggat aaattttaca aaatgaatta tttgcctaag gtgtggttta tataaaggta ctattaccaa ctttaccttt gctttgttgt catttttaaa tttactcaag gaaatactag gatttaaaaa aaaattcctt 3’
Degradation via Detection of Split Nanoluciferase (HiBiT)
To assess PROTAC-mediated degradation of HiBiT-tagged KRAS constructs, cells were seeded at […]
further incubated at 37 °C for 4 and 24 h. Following incubation, 20 µL per well of Promega Nano-Glo® HiBiT lytic detection reagent mix (Promega Nano-Glo® HiBiT Lytic Detection System […]
plotted as percent of DMSO control.

[7] = test system: Cal-62 cells; assay: CellTiter-Glo anti-proliferation, Cal-62; format: cell-based, human; conditions: Homo sapiens, 72 h; Cal-62 (G12R); read-out: CTG 72h Ic50
[8] = test system: Calu-6 cells; assay: CellTiter-Glo anti-proliferation, Calu-6; format: cell-based, human; conditions: Calu-6 (Q61K)
[9] = test system: A375 cells; assay: CellTiter-Glo anti-proliferation, A375 (KRAS independent); format: cell-based, human
[10] = test system: Cal-62 cells; assay: Whole cell proteomics MS analysis of Cal-62 cells; format: cell-based, human; conditions: 1 µM, 6 h, FDR<0.05
[11] = test system: HiBiT-tagged KRAS mutants in GP5d cells; assay: Degradation of retrovirally transduced HiBiT-tagged KRAS mutants in GP5d cells; format: cell-based, human; conditions: 18 h
[12] = molecular target: NRAS in Cal-62 cells (Homo sapiens, UniProt P01111); assay: Western blot of NRAS levels in Cal-62 cells
Chain of NRAS in Cal-62 cells (P01111 whole entry): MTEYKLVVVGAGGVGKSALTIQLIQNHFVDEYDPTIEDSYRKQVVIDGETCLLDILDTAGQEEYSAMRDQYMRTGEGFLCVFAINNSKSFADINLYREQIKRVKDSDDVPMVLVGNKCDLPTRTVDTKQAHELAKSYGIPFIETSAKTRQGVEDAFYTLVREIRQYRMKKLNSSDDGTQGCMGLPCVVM

T3 sequence (P01116 1-188 isoform P01116-2 G12R): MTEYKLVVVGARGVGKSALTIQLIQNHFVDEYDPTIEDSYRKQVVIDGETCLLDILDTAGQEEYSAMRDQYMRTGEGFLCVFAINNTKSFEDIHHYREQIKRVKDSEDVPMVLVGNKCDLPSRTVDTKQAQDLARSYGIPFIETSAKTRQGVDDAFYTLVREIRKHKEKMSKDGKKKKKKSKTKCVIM
T6 sequence (P01116 1-188 isoform P01116-2 G12R): as above
T2 sequence (P01116 1-188 isoform P01116-2 G12R): as above
T4 sequence (P01116 1-188 isoform P01116-2 Q61K): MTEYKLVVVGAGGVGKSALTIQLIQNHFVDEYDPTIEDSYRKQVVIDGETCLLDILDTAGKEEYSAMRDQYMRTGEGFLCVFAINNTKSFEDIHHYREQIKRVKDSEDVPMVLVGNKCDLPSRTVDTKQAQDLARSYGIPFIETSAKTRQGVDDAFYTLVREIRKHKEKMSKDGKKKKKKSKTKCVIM
T1 sequence (P01116 1-188 isoform P01116-2 G12D): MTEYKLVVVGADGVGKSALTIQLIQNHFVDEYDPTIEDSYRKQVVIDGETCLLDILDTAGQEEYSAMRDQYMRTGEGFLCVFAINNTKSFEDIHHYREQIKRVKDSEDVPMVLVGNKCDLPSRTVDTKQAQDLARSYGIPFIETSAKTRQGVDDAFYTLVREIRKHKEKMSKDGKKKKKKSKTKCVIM
T5 sequence (P01116 1-188 isoform P01116-2 Q61L): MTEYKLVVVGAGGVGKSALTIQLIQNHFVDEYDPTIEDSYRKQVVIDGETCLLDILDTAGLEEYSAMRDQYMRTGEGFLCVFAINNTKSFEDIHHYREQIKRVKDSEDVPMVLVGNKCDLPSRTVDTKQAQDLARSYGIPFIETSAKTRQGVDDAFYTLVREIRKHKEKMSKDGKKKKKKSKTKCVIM

CC(C)C(C(=O)N1CC(O)CC1C(=O)NCc1ccc2cnn(C)c2c1)n1nnc2c1CCC(CCCN1CCCN(c3nccc(-c4noc(C5(C)CCCc6sc(N)c(C#N)c65)n4)n3)C(C)C1)C2 (centres unmarked) [ACBI4]
Dmax ([1]; 4 h, read-out: DMax 4h): 96.5% | DC50 ([1]; 4 h, read-out: Dc50 4h): 7 nM | Dmax ([1]; 18 h, read-out: DMax 18h): 99% | DC50 ([1]; 18 h, read-out: Dc50 18h): 7 nM | Dmax ([2]; 4 h, read-out: DMax 4h): 88% | DC50 ([2]; 4 h, read-out: Dc50 4h): 382 nM | Dmax ([2]; 18 h, read-out: DMax 18h): 93% | DC50 ([2]; 18 h, read-out: Dc50 18h): 162 nM | Dmax ([3]; 4 h, read-out: DMax 4h): 91% | DC50 ([3]; 4 h, read-out: Dc50 4h): 316 nM | Dmax ([3]; 18 h, read-out: DMax 18h): 82% | DC50 ([3]; 18 h, read-out: Dc50 18h): 151 nM | Dmax ([4]; 4 h, read-out: DMax 4h): 34% | DC50 ([4]; 4 h, read-out: Dc50 4h): 274 nM | Dmax ([4]; 18 h, read-out: DMax 18h): 68% | DC50 ([4]; 18 h, read-out: Dc50 18h): 157 nM | Dmax ([5]; 4 h, read-out: DMax 4h): 58% | DC50 ([5]; 4 h, read-out: Dc50 4h): 300 nM | Dmax ([5]; 18 h, read-out: DMax 18h): 65% | DC50 ([5]; 18 h, read-out: Dc50 18h): 1000 nM | Dmax ([6]; 4 h, read-out: DMax 4h): 80% | DC50 ([6]; 4 h, read-out: Dc50 4h): 80 nM | Dmax ([6]; 24 h, read-out: DMax 24h): 87% | DC50 ([6]; 24 h, read-out: Dc50 24h): 205 nM | pIC50 [7]: 6.76 | CTG 72h Ic50 [8]: unstable | pIC50 ([9]; Homo sapiens, A-375, 144 h, A375 (KRAS WT; KRAS independent), read-out: CTG 144h Ic50): < 5.52 | antiproliferative effect (in words) ([9]; KRAS-independent A375 cell line): No antiproliferation; also recorded: No antiproliferative effect was observed | Log2 Difference CDKN1C ([10]; ACBI4/DMSO): 1.09 | Log2 Difference FOSL1 ([10]; ACBI4/DMSO): -0.93 | Log2 Difference G0S2 ([10]; ACBI4/DMSO): -1.35 | Log2 Difference KRAS ([10]; ACBI4/DMSO): -0.94 | Log2 Difference NRAS ([10]; ACBI4/DMSO): -1.86 | Log2 Difference RHOB ([10]; ACBI4/DMSO): 2.12 | Log2 Difference CDKN1C ([10]; ACBI4/Neg Ctr): 1.24 | Log2 Difference FOSL1 ([10]; ACBI4/Neg Ctr): -0.7 | Log2 Difference G0S2 ([10]; ACBI4/Neg Ctr): -1.11 | Log2 Difference KRAS ([10]; ACBI4/Neg Ctr): -0.79 | Log2 Difference NRAS ([10]; ACBI4/Neg Ctr): -1.48 | Log2 Difference PLAU ([10]; ACBI4/Neg Ctr): -0.73 | Log2 Difference RHOB ([10]; ACBI4/Neg Ctr): 2.07 | Log2 Difference TSPYL4 ([10]; ACBI4/Neg Ctr): 0.96 | degradation of HiBiT-tagged KRAS mutant panel (in words) [11]: induce the degradation of all KRAS alleles | NRAS degradation [12]: degradation of NRAS only at very high concentrations
